Experimental data: patent publication US7238527B2, “Methods and compositions for rapid in vitro propagation of Swertia chirata” (priority 2001, dated 2007)

System: Swertia chirata shoots
Test: Rooting of excised four-week shoots on modified MS with auxins (Example 3)
Type: cell-based
Settings: for Rooting %: agar 0.8%
Procedure: The effect of various auxins on rooting percent and duration may be studied using four-week shoots obtained in the preceding section.
The excised shoot may be transferred to modified MS basal culture medium with varied concentrations of several auxins selected from a group comprising IAA, IBA, and NAA as shown in Table 3.
In this experiment there are 3 treatments of auxin IAA, IBA and NAA using various levels (1–5 mg/L) supplemented to modified MS media, Supporting system Agar (0.8%).
Four weeks long shoot achieved in experiment 2 were excised and transferred to above referred medium

Substance: indole butyric acid [IBA]
- Time to rooting (1.0 to 5.0 mg/L auxin in modified MS basal culture medium): about 8 weeks
- Rooting (wks) (auxin 1 mg/L in modified MS): 8 wks
- Rooting % (auxin 1 mg/L in modified MS): 60%
- Rooting (wks) (auxin 2 mg/L in modified MS): 8 wks
- Rooting % (auxin 2 mg/L in modified MS): 62%
- Rooting (wks) (auxin 5 mg/L in modified MS): 8 wks
- Rooting % (auxin 5 mg/L in modified MS): 60%
- Root morphology (in words): white colored, thick, and short
